Results from ChEMBL document CHEMBL1133918, “Design, synthesis and antiproliferative activity of tripentones: a new series of antitubulin agents” (Bioorg Med Chem Lett, 2001).
One block for each molecule: values may come before it.

Legend:
[1] = tested on: L1210; experiment: Effect in the G2/M phase of L1210 leukemia cell with a significant percentage of cells having 8N DNA content at 25 uM; assay type: functional, Mus musculus
[2] = tested on: L1210; experiment: In vitro inhibitory concentration against L1210 leukemia cell line for antiproliferative activity; assay type: functional, cell-based; settings: Mus musculus
[3] = tested on: L1210; experiment: Effect in the G1 phase of L1210 leukemia cell at 50 uM; assay type: functional, Mus musculus
[4] = tested on: L1210; experiment: Effect in the G2/M phase of L1210 leukemia cell with a significant percentage of cells having 8N DNA content at 10 uM; assay type: functional, Mus musculus
[5] = tested on: NCI-H69; experiment: Tested for antiproliferative activity against H-69 tumoral cell line; assay type: functional, cell-based; settings: Homo sapiens
[6] = tested on: KB 3-1; experiment: Tested for antiproliferative activity against KB 3-1 tumoral cell line; assay type: functional, cell-based; settings: Homo sapiens
[7] = tested on: OVCAR-3; experiment: Tested for antiproliferative activity against Ovcar-3 tumoral cell line; assay type: functional, cell-based; settings: Homo sapiens
[8] = tested on: KB; experiment: Tested for antiproliferative activity against KB-A1 tumoral cell line; assay type: functional, cell-based; settings: Homo sapiens
[9] = tested on: L1210; experiment: Tested for antiproliferative activity against L1210 tumoral cell line; assay type: functional, cell-based; settings: Mus musculus
[10] = tested on: B16; experiment: Tested for antiproliferative activity against B16 tumoral cell line; assay type: functional, cell-based; settings: Mus musculus
[11] = tested on: DU-145; experiment: Tested for antiproliferative activity against DU145 tumoral cell line; assay type: functional, cell-based; settings: Homo sapiens
[12] = tested on: P388/VCR-20; experiment: Tested for antiproliferative activity against VCR-20 tumoral cell line; assay type: functional, cell-based; settings: Mus musculus
[13] = tested on: L1210; experiment: Effect in the G2/M phase of L1210 leukemia cell with a significant percentage of cells having 8N DNA content at 0.5 uM; assay type: functional, Mus musculus
[14] = tested on: A2780; experiment: Tested for antiproliferative activity against A-2780 tumoral cell line; assay type: functional, cell-based; settings: Homo sapiens
[15] = Concentration required to alter the assembly reaction of microtubules without any depolymerization effect; assay type: functional
[16] = tested on: P388; experiment: Tested for antiproliferative activity against P388 tumoral cell line; assay type: functional, cell-based; settings: Mus musculus
[17] = tested on: SK-MEL-2; experiment: Tested for cytostatic activity against Melanoma SK-MEL2 cell line of NCI 60 tumor cell line panel; assay type: functional; settings: Homo sapiens
[18] = tested on: MOLT-4; experiment: Tested for cytostatic activity against Leukemia MOLT-4 cell line of NCI 60 tumor cell line panel; assay type: functional; settings: Homo sapiens
[19] = tested on: EKVX; experiment: Tested for cytostatic activity against non small cell lung(NSCL) EKVX cell line of NCI 60 tumor cell line panel; assay type: functional; settings: Homo sapiens
[20] = tested on: HCC 2998; experiment: Tested for cytostatic activity against colon HCC2998 cell line of NCI 60 tumor cell line panel; assay type: functional; settings: Homo sapiens
[21] = tested on: Hs-578T; experiment: Tested for cytostatic activity against Breast Hs 578.T cell line of NCI 60 tumor cell line panel; assay type: functional; settings: Homo sapiens
[22] = tested on: OVCAR-3; experiment: Tested for cytostatic activity against Ovarian OVCAR-3 cell line of NCI 60 tumor cell line panel; assay type: functional; settings: Homo sapiens
[23] = tested on: SF-295; experiment: Tested for cytostatic activity against Central nervous system SF-295 cell line of NCI 60 tumor cell line panel; assay type: functional; settings: Homo sapiens
[24] = tested on: A498; experiment: Tested for cytostatic activity against Renal A-498 cell line of NCI 60 tumor cell line panel; assay type: functional; settings: Homo sapiens
[25] = tested on: DU-145; experiment: Tested for cytostatic activity against Prostate DU-145 cell line of NCI 60 tumor cell line panel; assay type: functional; settings: Homo sapiens
[26] = Inhibition of tubulin polymerization; assay type: functional
[27] = tested on: L1210; experiment: Effect in the G2/M phase of L1210 leukemia cell with a significant percentage of cells having 8N DNA content at 5 uM; assay type: functional, Mus musculus
[28] = tested on: L1210; experiment: Effect in the G2/M phase of L1210 leukemia cell with a significant percentage of cells having 8N DNA content at 1 uM; assay type: functional, Mus musculus

IC50 [2]: 8 µM
Structure (SMILES): COc1cc(-c2csc3c2-n2cccc2C3=O)ccc1O
Effect [1]: 86%

IC50 [2]: 28.1 µM
Structure (SMILES): CCCOc1ccc(-c2csc3c2-n2cccc2C3=O)cc1

IC50 [2]: > 100 µM
Structure (SMILES): O=C1c2sccc2-n2cccc21

IC50 [2]: 3.7 µM
Structure (SMILES): O=C1c2scc(-c3ccccc3O)c2-n2cccc21
Effect [3]: 72%

IC50 [2]: 5.2 µM
Structure (SMILES): COc1cccc(-c2csc3c2-n2cccc2C3=O)c1
Effect [1]: 94%

IC50 [2]: 4.2 µM
Structure (SMILES): O=C1c2scc(-c3ccc4c(c3)OCO4)c2-n2cccc21
Effect [4]: 88%

IC50 [5]: 0.036 µM
IC50 [6]: 0.018 µM
IC50 [7]: 0.031 µM
IC50 [8]: 0.015 µM
IC50 [9]: 0.015 µM
IC50 [10]: 0.023 µM
IC50 [11]: 0.043 µM
IC50 [12]: 0.021 µM
IC50 [2]: 0.015 µM
IC50 [14]: 0.041 µM
IC50 [15]: 2.9 µM
IC50 [16]: 0.038 µM
Structure (SMILES): COc1ccc(-c2csc3c2-n2cccc2C3=O)cc1O
Effect [13]: 80%

IC50 [2]: 26.7 µM
Structure (SMILES): O=C1c2scc(-c3ccccc3)c2-n2cccc21
GI50 [17]: 12.6 µM
GI50 [18]: 12.6 µM
GI50 [19]: 5.01 µM
GI50 [20]: 20 µM
GI50 [21]: 5.01 µM
GI50 [22]: 15.8 µM
GI50 [23]: 20 µM
GI50 [24]: 1.58 µM
GI50 [25]: 25.1 µM

Structure (SMILES): COc1cc([C@@H]2c3cc4c(cc3C[C@H]3COC(=O)[C@@H]32)OCO4)cc(OC)c1OC [DESOXYPODOPHYLLOTOXIN]
IC50 [26]: 2.4 µM

IC50 [2]: 30.1 µM
Structure (SMILES): O=C1c2scc(-c3ccc(O)cc3)c2-n2cccc21

IC50 [2]: 29.6 µM
Structure (SMILES): CCCCOc1ccc(-c2csc3c2-n2cccc2C3=O)cc1

IC50 [2]: 36.4 µM
Structure (SMILES): COc1cc(-c2csc3c2-n2cccc2C3=O)cc(OC)c1OC

IC50 [2]: 11.7 µM
Structure (SMILES): COc1ccc(-c2csc3c2-n2cccc2C3=O)cc1OC
Effect [1]: 86%

Structure (SMILES): O=C1c2scc(-c3ccc(Cl)cc3)c2-n2cccc21
GI50 [17]: > 100 µM
GI50 [18]: 79.4 µM
GI50 [19]: 2.51 µM
GI50 [20]: > 100 µM
GI50 [21]: 2 µM
GI50 [22]: > 100 µM
GI50 [23]: > 100 µM
GI50 [24]: 1 µM
GI50 [25]: > 100 µM

IC50 [2]: 18.9 µM
Structure (SMILES): COc1ccccc1-c1csc2c1-n1cccc1C2=O
Effect [27]: 75%

Structure (SMILES): O=C1c2scc(-c3ccc(F)cc3)c2-n2cccc21
GI50 [17]: 31.6 µM
GI50 [18]: 25.1 µM
GI50 [19]: 25.1 µM
GI50 [20]: 25.1 µM
GI50 [21]: 20 µM
GI50 [22]: 50.1 µM
GI50 [23]: 25.1 µM
GI50 [24]: 1.58 µM
GI50 [25]: 79.4 µM

IC50 [2]: 0.19 µM
Structure (SMILES): COc1ccc(-c2csc3c2-n2cccc2C3=O)cc1
GI50 [17]: 0.398 µM
GI50 [18]: 0.0398 µM
GI50 [19]: 0.794 µM
GI50 [20]: 0.316 µM
GI50 [21]: 0.0501 µM
GI50 [22]: 0.0398 µM
GI50 [23]: 0.0398 µM
Effect [13]: 83%
GI50 [24]: 0.631 µM
GI50 [25]: 0.158 µM

IC50 [2]: 29 µM
Structure (SMILES): O=C1c2scc(-c3cccc(O)c3)c2-n2cccc21

IC50 [2]: 0.43 µM
Structure (SMILES): CCOc1ccc(-c2csc3c2-n2cccc2C3=O)cc1
Effect [28]: 88%

IC50 [2]: > 100 µM
Structure (SMILES): Cc1csc2c1-n1cccc1C2=O

IC50 [2]: 0.28 µM
Structure (SMILES): O=C1c2scc(-c3ccc(O)c(O)c3)c2-n2cccc21
Effect [13]: 86%
